Assay results from patent publication US11760751B2, “Benzo 2-azaspiro[4.4]nonane compound and use thereof” (HELIOEAST PHARMACEUTICAL CO., LTD., priority 2020, dated 2023).

How the values were obtained:
[1] = target: T1, S1PR1 (Homo sapiens, UniProt P21453); test: In vitro S1PR1 agonistic activity, U2OS-EDG1 cells, LiveBLAzer-FRET B/G (CCF4-AM); type: cell-based
T1 construct: expressed in transfected cells
Procedure: Test Embodiment 2: In Vitro Evaluation of the Agonistic Activity of the Compounds of the Present Disclosure on S1PR1
Experimental objective: to detect the agonistic activity of compounds on S1PR1
I. Cell Treatment • 1. The cells U2OS-EDG1 (batch number: Invitrogen-K1520) were taken out from a liquid nitrogen tank and quickly thawed in a 37° C. water bath; • 2. the cell suspension was aspirated into a 15 mL centrifuge tube, resuspended in 5 mL of pre-warmed culture medium, and centrifuged at 1000 rpm for 5 min; • 3. the supernatant was discarded, 10 mL of culture medium was resuspended, transferred to a T75 culture flask, and cultured in a 37° C., 5% CO2 incubator.
II. Agonist Assay • 1. Compounds were diluted to working concentrations, and the compounds were 3-fold diluted by Echo 555 (manufacturer: Labcyte) to 10 concentrations, and then 200 nL of each concentration were transferred to cell plates, and centrifuged at 1000 rpm for 15 seconds; • 2. the culture medium in the culture flask was aspirated, and 4 mL of Dulbecco's Phosphate Buffered Saline (DPBS, supplier: Coring, catalog number: 21-031-CVR, batch number: 03318006) was added thereto to wash off the residual serum, and 2 mL of trypsin was added thereto, and incubated in a 37° C. incubator for 2 minutes to digest the cells, and then 10 mL of seed plate culture medium was added to resuspend the cells, and 0.6 mL of the cell suspension was taken out for counting; • 3. the cell density was adjusted with the seed plate culture medium to 1.88E+05 cells/mL, 40 μL was seeded per well (7500\well), and 40 μL of FreeStyle™ Expression culture medium was added around the cell plate, left to stand for 15 minutes at room temperature, and incubated at 37° C. with 5% CO2 for 20 hours.
III. Signal Detection • 1. LiveBLAzer™-FRET B/G Substrate (CCF4-AM) detection reagent was configured according to the instructions; • 2. 8 μL of 6×Substrate Mixture was added to each well of the cell plate, centrifuged at 1000 rpm for 15 seconds, attached with a membrane, incubated at 23° C. for 2 hours, and detected by Envision […].
IV. Data Analysis • 1. The original data was converted into % Effect by using the equation, and the value of EC50 could be obtained by curve fitting with four parameters [obtained in the “log(agonist) vs. response—Variable slope” mode in GraphPad Prism]; • 2. calculation formula: Ratio=(460 nm−blank)/(535 nm−blank) % Effect=(SampleRatio−Ave LCRatio)/(Ave HCRatio−Ave LCRatio)*100%

[2] = Pharmacokinetic evaluation in SD rats at different oral doses; type: in vivo, Sprague Dawley rats; conditions: male, Sprague-Dawley, rat, plasma, po, 5 mg/kg, single oral administration 5 mg/kg
Procedure: Test Embodiment 5: Pharmacokinetic Evaluation of Compounds in Rats at Different Doses
Experimental objective: to test the pharmacokinetics of the compounds in SD rats at different doses
Sprague Dawley rats (male, 200-300 g, 7-9 weeks old, Shanghai SLAC)
A standard protocol was used to test the pharmacokinetic characteristics of the compounds in SD rats after oral administration. In the experiment, the candidate compound was prepared into a clear solution, and administrated to rats by single oral administration. The vehicle for compound 1 was DMSO: 10% hydroxypropyl β-cyclodextrin aqueous solution=5:95. The vehicle for compounds 1A and 1B was 0.5% carboxymethyl cellulose +0.2% Tween 80. Whole blood samples of compounds 1, 1A and 1B within 48 hours were collected, centrifuged at 3000 g for 15 minutes, and the supernatant was separated to obtain plasma samples. 4-fold volume of acetonitrile solution containing internal standard was added thereto to precipitate protein. The mixture was centrifuged, and the supernatant was taken, and an equal volume of water was added thereto. Then the mixture was centrifuged and the supernatant was taken for injection. The blood drug concentration was quantitatively analyzed by LC-MS/MS analysis method, and pharmacokinetic parameters, such as peak concentration, peak time, half-life, area under the drug-time curve, were calculated.

T1 sequence (P21453 whole entry): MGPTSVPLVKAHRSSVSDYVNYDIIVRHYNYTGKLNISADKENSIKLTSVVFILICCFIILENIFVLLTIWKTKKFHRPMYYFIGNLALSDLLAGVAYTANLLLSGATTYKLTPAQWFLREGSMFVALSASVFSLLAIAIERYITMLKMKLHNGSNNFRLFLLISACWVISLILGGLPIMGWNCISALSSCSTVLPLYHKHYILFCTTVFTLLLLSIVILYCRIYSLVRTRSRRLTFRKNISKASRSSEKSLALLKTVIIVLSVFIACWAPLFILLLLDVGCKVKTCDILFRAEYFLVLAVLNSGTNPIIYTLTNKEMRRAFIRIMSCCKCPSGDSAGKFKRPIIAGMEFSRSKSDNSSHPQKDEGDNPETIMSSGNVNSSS

CC(C)Oc1ccc(-c2nc(-c3cccc4c3CCC43CCN(CC4(C(=O)O)CC4)C3)no2)cc1C#N (single isomer, unassigned) [Compound 22B]
EC50 ([1]; 20 hours incubation): 0.32 nM
Emax ([1]; % Effect): nM, 74.0%
AUC(0-t) ([2]; read-out: Area under the drug-time curve AUC0-last PO): 33 µM·h
half-life ([2]; read-out: Half-life T1/2 (PO) (converted)): 6.7 h
Cmax ([2]; read-out: Peak concentration Cmax): 2940 nM
Tmax ([2]; read-out: Peak time Tmax): 3 h
